Test system: rat PCA response
Assay: Rat Passive Cutaneous Anaphylaxis (PCA) test
Type: in vivo, rat (male Wistar serum donors; Wistar test rats)
Procedure: Some of the substituted 4-hydroxy-3-nitro-α-pyridones prepared in the previous examples were submitted for biological testing. The test system was the Rat Passive Cutaneous Anaphylaxis (PCA) test described below in (ii).
i. Serum containing heat labile homocytotropic antibody was raised in rats by a method similar to that used by Mota. (I. Mota Immunology 1964, 7, 681).
Male Wistar rats of 250- 300g, were injected intraperitoneally with 0.5ml of Bordatella pertussis vaccine (containing 4 × 10^10 dead organism per ml) and subcutaneously with 0.5ml of an emulsion of 100mg of ovalbumin in 2ml of saline and 3ml of incomplete Freunds' adjuvant. Rats were bled by cardiac puncture on day 18, the blood was pooled and separated and serum stored at -20° C and thawed only once before use.
ii. The P.C.A. test was similar to that described by Ovary and Bier (A. Ovary and O. E. Bier, Proc. Soc. Exp. Biol.Med.1952, 81, 584) and Goose and Blair (J. Goose and A. M. J. N. Blair, Immunology 1969, 16, 769).
0.1ml. of each six twofold serial dilutions of the serum in 0.9% saline were injected intradermally into separate sites on the shaved dorsal surface of 250-350 g Wistar rats. 72 hours later the animals were challenged by i.v. injection of 0.3ml of 1% ovalbumin mixed with 0.1ml of a 5% solution of pontamine sky blue dye both in isotonic saline buffered with pH 7.2 Sorenson buffer (P.B.S.). The rats were killed after 20 minutes and the diameter of the blue wheals at the antibody injection sites were measured. The starting dilution of the serum was adjusted so that there was no response, after challenge, at the site of injection of the highest dilution and a maximum response at the lowest dilution. Typically, six twofold serial dilutions of the serum from 1/4 to 1/128 were used.
Compounds were tested for their ability to reduce the diameter of the wheals at the injection sites of dilutions of antibody which on all the controls have less than maximum response. Amounts of the compounds were administered to rats each amount to a test group of six animals at a specified time prior to intravenous challenge with ovalbumin. The diameters of the blue wheals which developed on the test group of animals were compared with those on a control group of six animals treated in the same way as the test group, but which had not received the compound under test.
% Inhibition of P.C.A. = 100 (1 - (a/b))
a = The mean of the sum of the diameters of the wheels produced in the test group of animals at those antibody sites where all the control group of animals gave less than maximum response.
b = The mean of the sum of diameters of the wheals produced in the control group of animals at those antibody sites where all the animals in the group gave less than the maximum response.
The compounds were administered either as a solution of the free nitro compound or as a solution or suspension in 1% methyl cellulose of the sodium salt.

[1] = time 30 mins prior to challenge
[2] = time 10 mins prior to challenge
[3] = time 60 mins prior to challenge

Structure (SMILES) | inhibition in vivo at 25 mg/kg (time 0 mins prior to challenge) [%] | inhibition in vivo at 25 mg/kg [1] [%] | inhibition in vivo at 100 mg/kg (time 0 mins prior to challenge) [%] | inhibition in vivo at 100 mg/kg [1] [%] | inhibition in vivo at 25 mg/kg [2] [%] | inhibition in vivo at 100 mg/kg [2] [%] | inhibition in vivo at 25 mg/kg [3] [%] | inhibition in vivo at 100 mg/kg [3] [%]
CC1CCc2c([nH]c(=O)c([N+](=O)[O-])c2O)C1 (centres unmarked) [Example 2, 4-Hydroxy-7-methyl-3-nitro-5,6,7,8-tetrahydrocarbostyril] | 36 | 49 | 76 | 40 |  |  |  | 
CC1Cc2[nH]c(=O)c([N+](=O)[O-])c(O)c2C(C)C1 (centres unmarked) [Example 5, 5,7-dimethyl-4-hydroxy-3-nitro-5,6,7,8-tetrahydrocarbostyril] | 27 | 14 | 72 | 42 |  |  |  | 
CCn1c2c(c(O)c([N+](=O)[O-])c1=O)CCC(C)C2 (centres unmarked) [Example 11, 1-Ethyl-4-hydroxy-7-methyl-3-nitro-5,6,7,8-tetrahydrocarbostyril] | 8 | 38 | 31 | 57 |  |  |  | 
O=c1[nH]c2c(c(O)c1[N+](=O)[O-])CCC2 [Example 3, 5,6-Cyclopenteno-4-hydroxy-3-nitro-α-pyridone] | 10 | -20 | 28 | 6 |  |  |  | 
O=c1[nH]c2c(c(O)c1[N+](=O)[O-])CCCC2 [Example 1, 4-Hydroxy-3-nitro-5,6,7,8-tetrahydrocarbostyril] | 16 | 15 | 70 | 20 |  |  |  | 
O=c1[nH]c2c(c(O)c1[N+](=O)[O-])CCCCCC2 [Example 7, 5,6-cyclooctenyl-4-hydroxy-3-nitro-α-pyridone] |  | 15 |  | 37 | 17 | 59 |  | 
CC1CCc2[nH]c(=O)c([N+](=O)[O-])c(O)c2C1 (centres unmarked) [Example 6, 4-Hydroxy-6-methyl-3-nitro-5,6,7,8-tetrahydrocarbostyril] | 1 |  | 24 |  |  |  | 15 | 37
CCCn1c2c(c(O)c([N+](=O)[O-])c1=O)CCCC2 [Example 9, 4-Hydroxy-3-nitro-1-n-propyl-5,6,7,8-tetrahydrocarbostyril] | 51 | 25 | 18 | 69 |  |  |  | 
O=c1[nH]c2c(c(O)c1[N+](=O)[O-])CCCCC2 [Example 4, 5,6-cycloheptenyl-4-hydroxy-3-nitro-α-pyridone] | -10 |  | -3 |  |  |  | 1 | 27
CCn1c2c(c(O)c([N+](=O)[O-])c1=O)CCCC2 [Example 8, 1-Ethyl-4-hydroxy-3-nitro-5,6,7,8-tetrahydrocarbostyril] | -5 | 14 | 12 | 75 |  |  |  | 
CC(C)n1c2c(c(O)c([N+](=O)[O-])c1=O)CCCC2 [Example 10, 4-Hydroxy-1-isopropyl-3-nitro-5,6,7,8-tetrahydrocarbostyril] | 5 | 0 | 8 | 16 |  |  |  | 

Source: patent publication US4006237A, “Tetrahydrocarbostyril derivatives for the prophylaxis of asthma, hayfever and rhinitis” (Beecham Group Limited, priority 1973, dated 1977)
